Results reported in patent US5939100A, “Composition for drug delivery comprising nicotine or a derivative thereof and starch microspheres and method for the manufacturing thereof” (Pharmacia and UpJohn AB, priority 1993, dated 1999).
Read-outs that look alike come from different tables or passages of the source.

Test: Intravenous administration of nicotine in rats (plasma nicotine, pharmacokinetics)
Assay type: in vivo, rat (male Lewis rats, Lew/Mol)
Conditions: rat, 0.15 mg/kg BW
Excerpt: The plasma values obtained after i.v. administration of nicotine were just like those obtained by intranasal administration analysed for the number of phases.
One phase was recognized corresponding to only one elimination phase.
The model was fitted to the data using weighted least squares algoritm with the weighing factor=1.
The plasma nicotine values as a function of time after i.v. administration of nicotine are shown in the below Table 3 and FIG. 2. Six animals were used in the study. The pharmacokinetic parameters are calculated as described for the data obtained by intranasal administration.

Question: For CN1CCCC1c1cccnc1 (stereo not drawn) [nicotine], which concentration at […] (15 minutes after i.v. adm., read-out: Plasma nicotine values, average for 6 rats) is on record?
Answer: 47 ng/mL

Question: And the concentration at 0.5 h (30 minutes after i.v. adm., read-out: Plasma nicotine values, average for 6 rats)?
Answer: 61 ng/mL

Question: What about the concentration at 0.75 h (45 minutes after i.v. adm., read-out: Plasma nicotine values, average for 6 rats) of the same molecule?
Answer: 86 ng/mL

Question: What about the concentration at 1 h (60 minutes after i.v. adm., read-out: Plasma nicotine values, average for 6 rats) of the same molecule?
Answer: 50 ng/mL

Question: What about the concentration at […] (75 minutes after i.v. adm., read-out: Plasma nicotine values, average for 6 rats) of the same molecule?
Answer: 51 ng/mL

Question: And the concentration at […] (90 minutes after i.v. adm., read-out: Plasma nicotine values, average for 6 rats)?
Answer: 38 ng/mL

Question: What about the concentration at 1.75 h (105 minutes after i.v. adm., read-out: Plasma nicotine values, average for 6 rats) of the same molecule?
Answer: 38 ng/mL

Question: What about the concentration at 2 h (120 minutes after i.v. adm., read-out: Plasma nicotine values, average for 6 rats) of the same molecule?
Answer: 59 ng/mL

Question: What about the concentration at […] (150 minutes after i.v. adm., read-out: Plasma nicotine values, average for 6 rats) of the same molecule?
Answer: 36 ng/mL

Question: And the concentration at 3 h (180 minutes after i.v. adm., read-out: Plasma nicotine values, average for 6 rats)?
Answer: 22 ng/mL

Question: And the concentration at 3.5 h (210 minutes after i.v. adm., read-out: Plasma nicotine values, average for 6 rats)?
Answer: 25 ng/mL

Question: What about the concentration at 4 h (240 minutes after i.v. adm., read-out: Plasma nicotine values, average for 6 rats) of the same molecule?
Answer: 20 ng/mL

Question: What about the half-life (i.v., SIPHAR, read-out: Half-life (Ke line)) of the same molecule?
Answer: 2.6 h

Question: And the k el (i.v., SIPHAR, read-out: Ke, parameter value (converted))?
Answer: 7.33e-05 s⁻¹

Question: And the AUC(0-inf) (i.v., trapezoidal rule, read-out: AUC0-.infin. (converted))?
Answer: 262 ng·h/mL
